Laboratory results published in PMC2949283 (The Biochemical journal, 2009).

Key:
Wild Type HuAChE = Wild Type HuAChE (Homo sapiens, UniProt P22303); test: HuAChE inhibition kinetics; type: biochemical; settings: Wild Type HuAChE
F295A/F338A HuAChE = F295A/F338A HuAChE (Homo sapiens, UniProt P22303, F326A/F369A); test: HuAChE inhibition kinetics; type: biochemical; settings: F295A/F338A HuAChE
F295A/F338A/V407F HuAChE = F295A/F338A/V407F HuAChE (Homo sapiens, UniProt P22303, F326A/F369A/V438F); test: HuAChE inhibition kinetics; type: biochemical; settings: F295A/F338A/V407F HuAChE
Chain of F295A/F338A/V407F HuAChE (P22303 32-614 F326A/F369A/V438F): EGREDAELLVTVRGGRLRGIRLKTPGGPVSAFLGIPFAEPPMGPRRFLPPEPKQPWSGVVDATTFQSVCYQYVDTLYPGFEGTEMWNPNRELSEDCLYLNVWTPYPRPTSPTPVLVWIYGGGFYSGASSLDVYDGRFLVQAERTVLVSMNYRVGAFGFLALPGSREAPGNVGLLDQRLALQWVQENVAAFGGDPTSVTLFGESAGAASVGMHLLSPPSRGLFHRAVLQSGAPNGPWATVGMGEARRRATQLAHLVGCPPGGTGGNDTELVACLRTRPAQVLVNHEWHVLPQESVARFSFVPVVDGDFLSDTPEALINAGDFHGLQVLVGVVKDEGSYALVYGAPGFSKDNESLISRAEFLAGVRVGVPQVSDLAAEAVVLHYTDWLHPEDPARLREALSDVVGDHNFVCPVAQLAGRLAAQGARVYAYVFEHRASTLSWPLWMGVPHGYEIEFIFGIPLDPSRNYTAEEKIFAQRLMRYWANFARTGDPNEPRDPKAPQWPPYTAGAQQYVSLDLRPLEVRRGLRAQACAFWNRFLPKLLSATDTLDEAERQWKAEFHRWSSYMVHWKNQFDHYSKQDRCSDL

W86A HuAChE = W86A HuAChE (Homo sapiens, UniProt P22303, W117A); test: HuAChE inhibition kinetics; type: biochemical; settings: W86A HuAChE
Chain of W86A HuAChE (P22303 32-614 W117A): as the sequence (P22303 32-614 F326A/F369A/V438F) above, with W86A, A295F, A338F, F407V counted along it

Y337A HuAChE = Y337A HuAChE (Homo sapiens, UniProt P22303, Y368A); test: HuAChE inhibition kinetics; type: biochemical; settings: Y337A HuAChE
Chain of Y337A HuAChE (P22303 32-614 Y368A): as the sequence (P22303 32-614 F326A/F369A/V438F) above, with A295F, Y337A, A338F, F407V counted along it

Y124A HuAChE = Y124A HuAChE (Homo sapiens, UniProt P22303, Y155A); test: HuAChE inhibition kinetics; type: biochemical
Chain of Y124A HuAChE (P22303 32-614 Y155A): as the sequence (P22303 32-614 F326A/F369A/V438F) above, with Y124A, A295F, A338F, F407V counted along it

E202Q HuAChE = E202Q HuAChE (Homo sapiens, UniProt P22303, E233Q); test: HuAChE inhibition kinetics; type: biochemical; settings: E202Q HuAChE
Chain of E202Q HuAChE (P22303 32-614 E233Q): as the sequence (P22303 32-614 F326A/F369A/V438F) above, with E202Q, A295F, A338F, F407V counted along it

Y341A HuAChE = Y341A HuAChE (Homo sapiens, UniProt P22303, Y372A); test: HuAChE inhibition kinetics; type: biochemical; settings: Y341A HuAChE
Chain of Y341A HuAChE (P22303 32-614 Y372A): as the sequence (P22303 32-614 F326A/F369A/V438F) above, with A295F, A338F, Y341A, F407V counted along it

Y133F HuAChE = Y133F HuAChE (Homo sapiens, UniProt P22303, Y164F); test: HuAChE inhibition kinetics; type: biochemical; settings: Y133F HuAChE
Chain of Y133F HuAChE (P22303 32-614 Y164F): as the sequence (P22303 32-614 F326A/F369A/V438F) above, with Y133F, A295F, A338F, F407V counted along it

F295L/F297V/Y337A HuAChE = F295L/F297V/Y337A HuAChE (Homo sapiens, UniProt P22303, F326L/F328V/Y368A); test: HuAChE inhibition kinetics; type: biochemical; settings: F295L/F297V/Y337A HuAChE
Chain of F295L/F297V/Y337A HuAChE (P22303 32-614 F326L/F328V/Y368A): as the sequence (P22303 32-614 F326A/F369A/V438F) above, with A295L, F297V, Y337A, A338F, F407V counted along it

W86F HuAChE = W86F HuAChE (Homo sapiens, UniProt P22303, W117F); test: HuAChE inhibition kinetics; type: biochemical; settings: W86F HuAChE
Chain of W86F HuAChE (P22303 32-614 W117F): as the sequence (P22303 32-614 F326A/F369A/V438F) above, with W86F, A295F, A338F, F407V counted along it

Y133A HuAChE = Y133A HuAChE (Homo sapiens, UniProt P22303, Y164A); test: HuAChE inhibition kinetics; type: biochemical; settings: Y133A HuAChE
Chain of Y133A HuAChE (P22303 32-614 Y164A): as the sequence (P22303 32-614 F326A/F369A/V438F) above, with Y133A, A295F, A338F, F407V counted along it

G122A HuAChE = G122A HuAChE (Homo sapiens, UniProt P22303, G153A); test: HuAChE inhibition kinetics; type: biochemical
Chain of G122A HuAChE (P22303 32-614 G153A): as the sequence (P22303 32-614 F326A/F369A/V438F) above, with G122A, A295F, A338F, F407V counted along it

[1] = target: Y72N/Y124Q/W286A/ F295L/F297V/Y337A HuAChE (Homo sapiens, UniProt P22303, F326L/F328V/W317A/Y103N/Y155Q/Y368A); test: HuAChE inhibition kinetics; type: biochemical; settings: Y72N/Y124Q/W286A/F295L/F297V/Y337A HuAChE
Chain of Y72N/Y124Q/W286A/ F295L/F297V/Y337A HuAChE (P22303 32-614 Y103N/Y155Q/W317A/F326L/F328V/Y368A): as the sequence (P22303 32-614 F326A/F369A/V438F) above, with Y72N, Y124Q, W286A, A295L, F297V, Y337A, A338F, F407V counted along it

Y72N/Y124Q/W286A HuAChE = Y72N/Y124Q/W286A HuAChE (Homo sapiens, UniProt P22303, W317A/Y103N/Y155Q); test: HuAChE inhibition kinetics; type: biochemical
Chain of Y72N/Y124Q/W286A HuAChE (P22303 32-614 Y103N/Y155Q/W317A): as the sequence (P22303 32-614 F326A/F369A/V438F) above, with Y72N, Y124Q, W286A, A295F, A338F, F407V counted along it

W286A HuAChE = W286A HuAChE (Homo sapiens, UniProt P22303, W317A); test: HuAChE inhibition kinetics; type: biochemical; settings: W286A HuAChE
Chain of W286A HuAChE (P22303 32-614 W317A): as the sequence (P22303 32-614 F326A/F369A/V438F) above, with W286A, A295F, A338F, F407V counted along it

F297A HuAChE = F297A HuAChE (Homo sapiens, UniProt P22303, F328A); test: HuAChE inhibition kinetics; type: biochemical; settings: F297A HuAChE
Chain of F297A HuAChE (P22303 32-614 F328A): as the sequence (P22303 32-614 F326A/F369A/V438F) above, with A295F, F297A, A338F, F407V counted along it

F338A HuAChE = F338A HuAChE (Homo sapiens, UniProt P22303, F369A); test: HuAChE inhibition kinetics; type: biochemical; settings: F338A HuAChE
Chain of F338A HuAChE (P22303 32-614 F369A): as the sequence (P22303 32-614 F326A/F369A/V438F) above, with A295F, F407V counted along it

HuBChE-Wild Type = HuBChE-Wild Type (Homo sapiens, UniProt P06276); test: HuBChE inhibition kinetics; type: biochemical; settings: HuBChE-Wild Type
Chain of HuBChE-Wild Type (P06276 29-602): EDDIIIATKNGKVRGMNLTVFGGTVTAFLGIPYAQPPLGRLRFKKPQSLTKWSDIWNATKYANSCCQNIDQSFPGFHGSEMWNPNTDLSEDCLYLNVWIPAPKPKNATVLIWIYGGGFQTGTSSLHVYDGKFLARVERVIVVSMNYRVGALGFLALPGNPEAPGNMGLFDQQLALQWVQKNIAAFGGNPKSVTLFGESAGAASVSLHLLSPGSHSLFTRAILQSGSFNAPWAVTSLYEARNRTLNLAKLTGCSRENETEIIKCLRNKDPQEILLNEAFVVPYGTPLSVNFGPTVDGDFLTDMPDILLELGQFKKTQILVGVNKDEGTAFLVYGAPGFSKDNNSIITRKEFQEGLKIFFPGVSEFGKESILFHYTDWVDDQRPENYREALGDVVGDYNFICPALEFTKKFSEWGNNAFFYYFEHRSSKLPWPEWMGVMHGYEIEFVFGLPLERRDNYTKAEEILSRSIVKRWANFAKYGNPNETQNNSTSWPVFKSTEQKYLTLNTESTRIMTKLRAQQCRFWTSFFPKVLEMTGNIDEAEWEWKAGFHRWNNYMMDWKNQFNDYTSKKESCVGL

E450A HuAChE = E450A HuAChE (Homo sapiens, UniProt P22303, E481A); test: HuAChE inhibition kinetics; type: biochemical; settings: E450A HuAChE
Chain of E450A HuAChE (P22303 32-614 E481A): as the sequence (P22303 32-614 F326A/F369A/V438F) above, with A295F, A338F, F407V, E450A counted along it

E202A HuAChE = E202A HuAChE (Homo sapiens, UniProt P22303, E233A); test: HuAChE inhibition kinetics; type: biochemical; settings: E202A HuAChE
Chain of E202A HuAChE (P22303 32-614 E233A): as the sequence (P22303 32-614 F326A/F369A/V438F) above, with E202A, A295F, A338F, F407V counted along it

F295A HuAChE = F295A HuAChE (Homo sapiens, UniProt P22303, F326A); test: HuAChE inhibition kinetics; type: biochemical; settings: F295A HuAChE
Chain of F295A HuAChE (P22303 32-614 F326A): as the sequence (P22303 32-614 F326A/F369A/V438F) above, with A338F, F407V counted along it

D74N HuAChE [2] = target: T1, D74N HuAChE (Homo sapiens, UniProt P22303, D105N); test: HuAChE inhibition kinetics; type: biochemical; settings: D74N HuAChE
T1 sequence (P22303 32-614 D105N): as the sequence (P22303 32-614 F326A/F369A/V438F) above, with D74N, A295F, A338F, F407V counted along it

Y337F HuAChE = Y337F HuAChE (Homo sapiens, UniProt P22303, Y368F); test: HuAChE inhibition kinetics; type: biochemical; settings: Y337F HuAChE
Chain of Y337F HuAChE (P22303 32-614 Y368F): as the sequence (P22303 32-614 F326A/F369A/V438F) above, with A295F, Y337F, A338F, F407V counted along it

D74N HuAChE [3] = target: T1, D74N HuAChE; settings: D74N HuAChE vs wild type; cited from earlier work

Chain of F295A/F338A HuAChE (P22303 32-614 F326A/F369A): as the sequence (P22303 32-614 F326A/F369A/V438F) above, with F407V counted along it
Chain of Wild Type HuAChE (P22303 32-614): as the sequence (P22303 32-614 F326A/F369A/V438F) above, with A295F, A338F, F407V counted along it

CN(C)C(=O)Oc1ccc[n+](C)c1 [Pyridostigmine, pyridostigmine bromide]
k2, carbamylation rate constant (Wild Type HuAChE): 0.77 ± 0.3 min⁻¹
k2, carbamylation rate constant (F295A/F338A HuAChE): 0.5 ± 0.4 min⁻¹
ki, bimolecular rate constant of carbamylation (F295A/F338A HuAChE): 0.8±0.5 × 10^−4 M^−1min^−1
k2, carbamylation rate constant (F295A/F338A/V407F HuAChE): 0.5 ± 0.15 min⁻¹
k2, carbamylation rate constant (W86A HuAChE): 0.68 ± 0.2 min⁻¹
k2, carbamylation rate constant (Y337A HuAChE): 0.80 ± 0.1 min⁻¹
k2, carbamylation rate constant (Y124A HuAChE): 0.1 ± 0.01 min⁻¹
ki, bimolecular rate constant of carbamylation (Y124A HuAChE): 13.8±0.4 × 10^−4 M^−1min^−1
k2, carbamylation rate constant (E202Q HuAChE): 1.00 ± 0.2 min⁻¹
k2, carbamylation rate constant (Y341A HuAChE): 1.0 ± 0.1 min⁻¹
k2, carbamylation rate constant (Y133F HuAChE): 0.20 ± 0.04 min⁻¹
k2, carbamylation rate constant (F295L/F297V/Y337A HuAChE): 0.55 ± 0.09 min⁻¹
k2, carbamylation rate constant (W86F HuAChE): 0.65 ± 0.2 min⁻¹
k2, carbamylation rate constant (Y133A HuAChE): 1.80 ± 0.3 min⁻¹
k2, carbamylation rate constant (G122A HuAChE): 0.12 ± 0.02 min⁻¹
ki, bimolecular rate constant of carbamylation (G122A HuAChE): 0.76±0.2 × 10^−4 M^−1min^−1
k2, carbamylation rate constant [1]: 0.40 ± 0.1 min⁻¹
ki, bimolecular rate constant of carbamylation [1]: 0.6±0.1 × 10^−4 M^−1min^−1
k2, carbamylation rate constant (Y72N/Y124Q/W286A HuAChE): 0.80 ± 0.07 min⁻¹
ki, bimolecular rate constant of carbamylation (Y72N/Y124Q/W286A HuAChE): 9.3±0.8 × 10^−4 M^−1min^−1
k2, carbamylation rate constant (W286A HuAChE): 1.8 ± 0.5 min⁻¹
ki, bimolecular rate constant of carbamylation (W286A HuAChE): 14.0±0.6 × 10^−4 M^−1min^−1
k2, carbamylation rate constant (F297A HuAChE): 0.64 ± 0.1 min⁻¹
k2, carbamylation rate constant (F338A HuAChE): 1.20 ± 0.4 min⁻¹
k2, carbamylation rate constant (HuBChE-Wild Type): 0.30 ± 0.03 min⁻¹
k2, carbamylation rate constant (E450A HuAChE): 0.15 ± 0.02 min⁻¹
k2, carbamylation rate constant (E202A HuAChE): 0.20 ± 0.05 min⁻¹
k2, carbamylation rate constant (F295A HuAChE): 0.17 ± 0.02 min⁻¹
k2, carbamylation rate constant (D74N HuAChE [2]): 1.0 ± 0.1 min⁻¹
k2, carbamylation rate constant (Y337F HuAChE): 0.68 ± 0.2 min⁻¹

CC[N+](C)(C)c1cccc(O)c1 [edrophonium]
increase of the dissociation constant (D74N HuAChE [3]): 5 fold
